viscosity, mass density and refractive index data for five molecules are collected here from the NIST ThermoML archive (doi:10.1016/j.fluid.2017.06.018).

Data set [1] is described as follows: xn = mol fraction of the nth substance listed. The note with it: 100 kPa, Liquid, x1 = 1; for viscosity: Falling or rolling sphere viscometry; for mass density: Vibrating tube method.
Data set [2] can be described thus: refractive index (Na D-line) (dimensionless); xn = mol fraction of the nth substance listed. The note with it: 100 kPa, Liquid, Standard Abbe refractometry, x1 = 1.
The conditions of data set [3]: 100 kPa, Liquid; for viscosity: Falling or rolling sphere viscometry; for mass density: Vibrating tube method.
The nature of data set [4]: refractive index (Na D-line) (dimensionless). The conditions noted are these: 100 kPa, Liquid, Standard Abbe refractometry.

Several values for one entry are separate records, joined by “and”; a condition that tells them apart may be missing. Equal values may be shown once. ± gives the expanded uncertainty stated by the source.

Consider `NCCO` [2-aminoethan-1-ol] + NCCNCCN, for which the results for the viscosity in data set [1] (298.15 K), in data set [1] (303.15 K) and in data set [1] (308.15 K) were 18.72 ± 0.44 mPa·s, 15.15 ± 0.36 mPa·s and 11.9 ± 0.28 mPa·s, respectively. For the same molecule, the mass density in data set [1] (298.15 K) turned out to be 1012.4 ± 2.2 kg/m3; in data set [1] (303.15 K), 1008.4 ± 2.1 kg/m3; in data set [1] (308.15 K), 1004.5 ± 2.1 kg/m3. For the same molecule, the refractive index in data set [2] (298.15 K) was 1.4535 ± 0.0021; in data set [2] (303.15 K), 1.4519 ± 0.0021; in data set [2] (308.15 K), 1.4505 ± 0.0021.
Take `NCCNCCO` [N-(2-aminoethyl)ethanolamine]: the viscosity in data set [3] (298.15 K) is listed as 98.62 ± 2.9 mPa·s; in data set [3] (303.15 K) it was 70.57 ± 1.6 mPa·s; in data set [3] (308.15 K), 53.11 ± 1.1 mPa·s. In addition, the mass density in data set [3] (298.15 K) turned out to be 1025.8 ± 2 kg/m3; in data set [3] (303.15 K), 1021.3 ± 2 kg/m3; in data set [3] (308.15 K), 1016.3 ± 2 kg/m3. Further, the refractive index in data set [4] (298.15 K) is listed as 1.4843 ± 0.002; in data set [4] (303.15 K) it was 1.4827 ± 0.002; in data set [4] (308.15 K), 1.4811 ± 0.002.
Consider `NCCO` [2-aminoethan-1-ol], for which the viscosity in data set [3] (298.15 K) is 18.72 ± 0.44 mPa·s; in data set [3] (303.15 K), 15.15 ± 0.36 mPa·s; in data set [3] (308.15 K) it was 11.9 ± 0.28 mPa·s and 11.96 ± 0.28 mPa·s. Besides, the mass density in data set [3] (298.15 K) worked out at 1012.4 ± 2.2 kg/m3; in data set [3] (303.15 K), 1008.4 ± 2.1 kg/m3; in data set [3] (308.15 K) it was 1004.5 ± 2.1 kg/m3. The refractive index turned out to be 1.4535 ± 0.0021 in data set [4] (298.15 K), 1.4519 ± 0.0021 in data set [4] (303.15 K) and 1.4505 ± 0.0021 in data set [4] (308.15 K).
Turning to `NCCNCCN` [di(2-aminoethyl)amine], the viscosity in data set [3] (298.15 K) is reported as 5.63 ± 0.13 mPa·s; in data set [3] (303.15 K) it was 4.5 ± 0.11 mPa·s; in data set [3] (308.15 K), 3.85 ± 0.09 mPa·s. The mass density in data set [3] (298.15 K) stood at 945.8 ± 2.1 kg/m3; in data set [3] (303.15 K) it was 942.1 ± 2.1 kg/m3; in data set [3] (308.15 K), 937.8 ± 2.1 kg/m3. The refractive index in data set [4] (298.15 K) is reported as 1.4822 ± 0.0021; in data set [4] (303.15 K), 1.4808 ± 0.0021; in data set [4] (308.15 K), 1.4793 ± 0.0021.
On to `NCCO` [2-aminoethan-1-ol] + NCCNCCO, for which the results for the viscosity in data set [1] (298.15 K), in data set [1] (303.15 K) and in data set [1] (308.15 K) were 18.72 ± 0.44 mPa·s, 15.15 ± 0.36 mPa·s and 11.96 ± 0.28 mPa·s, respectively. Besides, the mass density in data set [1] (298.15 K) stood at 1012.4 ± 2.2 kg/m3; in data set [1] (303.15 K), 1008.4 ± 2.1 kg/m3; in data set [1] (308.15 K) it was 1004.5 ± 2.1 kg/m3. In addition, the refractive index in data set [2] (298.15 K) turned out to be 1.4535 ± 0.0021; in data set [2] (303.15 K), 1.4519 ± 0.0021; in data set [2] (308.15 K), 1.4505 ± 0.0021.

One may read the viscosity as the resistance of a fluid to flow. What is called mass density is mass per unit of volume. For orientation: refractive index means a measure of how strongly the sample bends light.
